US20230293488A1, “COMPOSITIONS AND METHODS OF USE OF ANTIBACTERIAL DRUG COMBINATIONS” (priority 2015, published 2023)
Where “and” joins values, the source holds several entries; their conditions need not be identical. Identical values can stand only once. Entries after “also recorded” stand apart in the source; their conditions may differ.

Legend:
[1] = tested on: MRSA COL pbp2a/mecA antisense (AS) strain; assay: Xylose-inducible antisense-RNA strain susceptibility (PBP2a repression); format: cell-based, Staphylococcus aureus; details: targeted repression of PBP2a
Excerpt: (§1) We confirmed the targets of the constituents of ME/PI/TZ by reducing the expression of PBP1, PBP2, PBP2a or PBP3 using a xylose-inducible antisense-RNA strategy in the MRSA COL strain background^49. When expression levels of PBP2a were attenuated, the strain behaved as a methicillin-susceptible S. aureus and was sensitized to all tested β-lactams (FIG. 6A-C).

[2] = tested on: MRSA COL pbp2 antisense (AS) strain; assay: Xylose-inducible antisense-RNA strain susceptibility (PBP2 repression); format: cell-based, Staphylococcus aureus; details: targeted repression of PBP2
Excerpt: as §1

[3] = tested on: MRSA N315; assay: Neutropenic mouse peritonitis model of MRSA infection; format: in vivo, mice; details: for Result (Alive/Dead) / Result (survivors per group) / Bacterial detection results: Plated: 67 mg/kg (of each) every 8 hrs SC; for Result (Alive/Dead) / Result (survivors per group): 6 doses; for Result (Alive/Dead) / Bacterial detection results: Plated: one line per mouse; for Result (survivors per group): six days post-infection; for Bacterial detection results: Plated: cheek bleed 11 h post-infection, ~100 uL blood plated, 67 mg/kg; for mice that succumbed to the infection: most within 48 h, 67 mg/kg (of each)
Excerpt: In vivo mouse model of MRSA infection: Animals. Outbred ICR female mice (6-8 weeks old, 17-25 g body weight; Harlan Laboratories, Inc., Indianapolis, IN, USA) were used. Mice were given Teklad 2019 Extruded Rodent Diet (Harlan Laboratories, Inc., Indianapolis, IN, USA) and water ad libitum. Mice were maintained in polycarbonate shoebox cages containing corncob (The Andersons, Inc., Maumee, OH, USA) and Alpha-dri (Shepherd Specialty Papers, Inc., Richland, MI, USA) bedding under 12-h light/12-h dark cycle at 22±1° C. All procedures involving animals were approved by the University of Notre Dame Institutional Animal Care and Use Committee.
Neutropenic mouse peritonitis model of MRSA infection. Doses of cyclophosphamide (100 μl of 50 mg/ml in 0.9% saline corresponding to 200 mg/kg; Alfa Aesar, Ward Hill, MA, USA) were given intraperitoneally (IP) at 4 days and 1 day prior to infection. The S. strain N315 was streaked onto Brain-Heart Infusion (BHI; Becton Dickson and Company, Sparks, MD, USA) agar and grown overnight at 36° C. The MRSA N315 bacterial inoculum was adjusted to approximately 1×10^8 CFU/ml (corresponding to OD540=0.5), then diluted to give 2×10^7CFU/ml. A 10% porcine mucin (Sigma-Aldrich, St. Louis, MO, USA) suspension was prepared and adjusted to pH 7. Immediately prior to infection, the bacterial inocula were diluted 1:1 with 10% mucin to a final concentration of 1×10^7CFU/ml in 5% mucin. The mice were then infected IP with 0.5 ml of this inoculum. In vivo dosing of compounds in mice was compared with mean or range peak human plasma concentrations of studied β-lactams^44,46,47,62,63.
Antibiotic preparation. Meropenem was obtained from AK Scientific, Inc. (Union City, CA, USA), piperacillin and tazobactam were obtained from Sigma-Aldrich Co. (St. Louis, MO, USA). Linezolid (CAS 165800-03-3) was obtained from AmplaChem (Carmel, IN, USA). Antibiotics were dissolved at a concentration of 16.67 mg/ml in 30% DMSO/30% propylene glycol/40% water. Linezolid was used as positive control and was prepared at 7.5 mg/ml. Vehicle (30% DMSO/30% propylene glycol/40% water) was included as negative control. The dosing formulations were sterilized by passing through 0.2 μm filter prior to injection.
(§2) Bacterial isolation from blood. Blood samples were checked for bacterial growth by plating and liquid culture. Whole blood (100 μl, three samples per group) was spread onto Brain-Heart Infusion (BHI) agar plates and incubated at 36° C. overnight. Colonies were counted and three colonies were selected, grown overnight in liquid BHI culture at 36° C., then mixed 1:1 with 30% LB-glycerol and stored at −80° C. The remaining three blood samples of each group (50 μl) was added to 5 ml BHI broth and incubated overnight at 36° C. When growth was noted, cultures were mixed 1:1 with 30% LB-glycerol and stored at −80° C.
Statistical Analyses: Data for minimal inhibitory concentrations (MICs) are derived from triplicate measurements. Adaptation data are taken from two replicate experiments for each drug combination condition. Data for qRT-PCR expression profiling are derived from three replicate experiments taken from three biological replicates each, with standard error of measurement calculated. Mice were treated in groups of six, and growth determination of bacteria determined via plate and broth culture in triplicate. Fisher's Exact test with Bonferroni correction was used for 8 independent tests (comparing each treatment to 610 vehicle).

[4] = tested on: MRSA N315; assay: In vitro MICs and FICI for MRSA N315 after passage in vivo; format: cell-based, Staphylococcus aureus
Excerpt: We tested MRSA N315 cultures from blood drawn from mice treated with meropenem, piperacillin, or vehicle for their in vitro MICs against ME/PI/TZ and its constituent single drugs to determine whether adaptation occurred during passage in vivo. All four tested isolates of MRSA N315 had identical MICs for the triple ME/PI/TZ and all constituent drugs, and thus identical synergy (Table 6B).
Microbiological Studies: MRSA N315 was a gift from Dr. Steven Gill, University of Rochester, Rochester, NY, USA. S. aureus ATCC 29213 was acquired from the American Type Culture Collection. De-identified clinical MRSA isolates were selected at random from the clinical isolate strain bank at Barnes-Jewish Hospital, St. Louis, MO, USA. Minimal inhibitory concentration (MIC) assays for inhibition of growth were performed following the recommendations of the Clinical and Laboratory Standards Institute (CLSI)^43. Briefly, 23 antibacterial compounds (Supplemental Table 1) were selected based on coverage of all major drug classes, including three compounds not classified as antibiotics for human use, but with known antibacterial properties. Compounds were dissolved in dimethyl sulfoxide (DMSO) to a stock concentration of 50 mg/ml. Exceptions: Sulfometuron at 20 mg/ml in DMSO; Tobramycin, D-cycloserine, and colistin at 50 mg/ml in H2O and filtered at 2 μm. The 23 compounds were formulated into all 253 possible unique pairwise combinations at fixed ratios and at 100× concentrations in solvent. To increase the range of concentrations assayed for possible synergistic or antagonistic drug interactions (>2,000-fold), the drug stocks were arrayed into threefold dilution series down eight rows in 96-well Costar master drug plates, using a BioMek FX robotic liquid handler (Beckman Coulter, Inc.). Drugs were then mixed 1:100 into 96-well plates containing 200 μl/well of cation-adjusted Mueller-Hinton broth (CAMHB). All drug susceptibility assay wells were inoculated with ˜1 μl of mid-log phase bacterial culture at 0.5 McFarland standard (˜2×10^8 CFU/ml) and grown at 37° C. for 24 h. Endpoint growth at 37° C. after 24 h was determined by optical density at 600 nm ≥0.1 using a Synergy H1 reader (BioTek, Inc.).
as §2

[5] = tested on: MRSA COL pbpA antisense (AS) strain; assay: Xylose-inducible antisense-RNA strain susceptibility (PBP1 repression); format: cell-based, Staphylococcus aureus; details: targeted repression of PBP1
Excerpt: as §1

[6] = colonies from mice given Vehicle

SMILES	susceptibility under xylose induction [1]	susceptibility under xylose induction [2]	Result (Alive/Dead) [3]	Result (survivors per group) [3]	Bacterial detection results: Plated [3]	mice that succumbed to the infection [3]	MIC ([4]; Staphylococcus aureus, MRSA) [µg/mL]	MIC ([4]; Wild-type N315) [µg/mL]	MIC ([4]; colonies from mice given PI) [µg/mL]	MIC [4, 6] [µg/mL]	susceptibility under xylose induction [5]
C[C@@H](O)[C@H]1C(=O)N2C(C(=O)O)=C(S[C@@H]3CN[C@H](C(=O)N(C)C)C3)[C@H](C)[C@H]12 [Meropenem]	increased susceptibility	increased susceptibility; also recorded: increased effectiveness	Alive (4×) and Dead (2×)	4/6	Plated: 11 colonies; also recorded: Plated: 3 colonies	several mice	33.3	33.3	33.3	33.3	increased susceptibility; also recorded: larger zones of inhibition
CCN1CCN(C(=O)N[C@@H](C(=O)N[C@@H]2C(=O)N3[C@@H]2SC(C)(C)[C@@H]3C(=O)O)c2ccccc2)C(=O)C1=O [Piperacillin]	Increased susceptibility	increased susceptibility; also recorded: increased effectiveness	Dead	0/6	Plated: 40 colonies	all mice	33.3	33.3	33.3	33.3	increased susceptibility
